Data taken from ChEMBL document CHEMBL3882246, “Benzoxazole kinase inhibitors and methods of use” (2010).
Calls of active or inactive are those of the source. The calls are words filed in the database; no cut-off is given here.

Columns and labels:
[1] = Antiproliferative activity against human PC3 cells measured after 72 hrs by Alamar blue dye-based fluorescence analysis; assay type: functional, cell-based, PC-3; conditions: for EC50: Homo sapiens, PC-3, 72 h
[2] = Antiproliferative activity against human 143B cells measured after 72 hrs by Alamar blue dye-based fluorescence analysis; assay type: functional, cell-based
[3] = Antiproliferative activity against human BT474 cells measured after 72 hrs by Alamar blue dye-based fluorescence analysis; assay type: functional, cell-based; conditions: bt-474
[4] = Antiproliferative activity against human MCF7-218 cells measured after 72 hrs by Alamar blue dye-based fluorescence analysis; assay type: functional, cell-based
[5] = Antiproliferative activity against human SKHEP1 cells measured after 72 hrs by Alamar blue dye-based fluorescence analysis; assay type: functional, cell-based; conditions: sk-hep1
[6] = Antiproliferative activity against human HT1080 cells measured after 72 hrs by Alamar blue dye-based fluorescence analysis; assay type: functional, cell-based; conditions: ht-1080
[7] = Antiproliferative activity against human MCF7-FL cells measured after 72 hrs by Alamar blue dye-based fluorescence analysis; assay type: functional, cell-based
[8] = Antiproliferative activity against human LNCAP cells measured after 72 hrs by Alamar blue dye-based fluorescence analysis; assay type: functional, cell-based
[9] = Antiproliferative activity against human HCT116 cells measured after 72 hrs by Alamar blue dye-based fluorescence analysis; assay type: functional, cell-based; conditions: hct-116
[10] = Antiproliferative activity against human HepG2 cells measured after 72 hrs by Alamar blue dye-based fluorescence analysis; assay type: functional, cell-based
[11] = Antiproliferative activity against human 786-O cells measured after 72 hrs by Alamar blue dye-based fluorescence analysis; assay type: functional, cell-based; conditions: 786-0
[12] = Antiproliferative activity against human BxPC3 cells measured after 72 hrs by Alamar blue dye-based fluorescence analysis; assay type: functional, cell-based; conditions: bxpc-3
[13] = Antiproliferative activity against human MIAPaCa2 cells measured after 72 hrs by Alamar blue dye-based fluorescence analysis; assay type: functional, cell-based; conditions: mia paca-2
U-87MG ATCC [14] = test: Inhibition of mTORC1/2 in human U87 cells assessed as inhibition of Akt-phosphorylation at S473 residue by Western blot analysis; assay type: cell-based
U-87MG ATCC [15] = test: Antitumor activity against human U87 cells xenografted in mouse assessed as tumor growth inhibition at 0.3 to 3 mg/kg measured after 14 days; assay type: functional, organism-based
[16] = molecular target: Ribosomal protein S6 kinase beta-1 (Homo sapiens) (UniProt P23443); test: Inhibition of mTOR pS6K in human U87 cells assessed as inhibition of 4EBP1 phosphorylation by Western blot analysis; assay type: cell-based; conditions: U-87MG ATCC
[17] = Toxicity in mouse xenografted with human U87 cells assessed as weight loss at 0.3 to 3 mg/kg measured after 14 days; assay type: organism-based, U-87MG ATCC; conditions: in vivo, 336 h
[18] = molecular target: Ribosomal protein S6 kinase beta-1 (Homo sapiens) (UniProt P23443); test: Inhibition of mTOR pS6K in human U87 cells assessed as inhibition of RAS40 phosphorylation by Western blot analysis; assay type: cell-based; conditions: U-87MG ATCC
[19] = molecular target: Serine/threonine-protein kinase mTOR (Homo sapiens) (UniProt P42345); test: Inhibition of mTOR in human U87 cells assessed as reduction in pAKT phosphorylation at residue […] by Western blot method; assay type: cell-based; conditions: U-87MG ATCC
[20] = molecular target: Serine/threonine-protein kinase mTOR (Homo sapiens) (UniProt P42345); test: Inhibition of mTOR in human U87 cells assessed as reduction in pRAS40 phosphorylation by Western blot method; assay type: cell-based; conditions: U-87MG ATCC
[21] = molecular target: Serine/threonine-protein kinase mTOR (Homo sapiens) (UniProt P42345); test: Inhibition of mTOR in human U87 cells assessed as reduction in p4EBP1 phosphorylation by Western blot method; assay type: cell-based; conditions: U-87MG ATCC
[22] = Antiproliferative activity against human COLO205 cells measured after 72 hrs by Alamar blue dye-based fluorescence analysis; assay type: functional, cell-based; conditions: colo 205

Chain of Ribosomal protein S6 kinase beta-1 (Homo sapiens) (P23443 whole entry, looked up): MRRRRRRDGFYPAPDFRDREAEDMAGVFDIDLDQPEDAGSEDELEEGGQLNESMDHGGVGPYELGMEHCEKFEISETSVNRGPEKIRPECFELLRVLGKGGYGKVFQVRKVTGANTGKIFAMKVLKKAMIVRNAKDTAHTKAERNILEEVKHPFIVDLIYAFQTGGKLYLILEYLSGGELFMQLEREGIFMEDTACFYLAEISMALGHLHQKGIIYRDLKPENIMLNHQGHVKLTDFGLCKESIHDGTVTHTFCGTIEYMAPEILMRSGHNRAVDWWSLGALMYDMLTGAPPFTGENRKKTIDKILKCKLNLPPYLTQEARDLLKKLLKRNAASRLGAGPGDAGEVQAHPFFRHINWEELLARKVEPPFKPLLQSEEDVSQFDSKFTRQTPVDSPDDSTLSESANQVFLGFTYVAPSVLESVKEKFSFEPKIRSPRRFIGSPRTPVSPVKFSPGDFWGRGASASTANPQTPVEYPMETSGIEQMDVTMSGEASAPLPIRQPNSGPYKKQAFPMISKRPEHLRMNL

For `CC(=O)Nc1nc2cc(-c3nn(C(C)C)c4ncnc(N)c34)ccc2o1`, which EC50 [1] is on record?
The EC50 was under 1 µM.

For `CC(C)n1nc(-c2ccc3c(N)noc3c2)c2c(N)ncnc21`, which EC50 [1] is on record?
The EC50 was over 10 µM.

Which IC50 [2] does the source give for `COc1cccc2c1C(=O)c1c(O)c3c(c(O)c1C2=O)C[C@@](O)(C(=O)CO)C[C@@H]3O[C@H]1C[C@H](N)[C@H](O)[C@H](C)O1` [DOXORUBICIN] here?
Its IC50 is “Active”.

What about the IC50 [3] of the same compound?
The IC50 was “Active”.

And the IC50 [4]?
Its IC50 is “Active”.

What about the IC50 [5] of the same compound?
Its IC50 is “Active”.

And the IC50 [6]?
The IC50 was “Active”.

What about the IC50 [7] of the same compound?
The IC50 was “Active”.

Which EC50 [1] does the source give for `CC(C)n1nc(-c2ccc3onc(N)c3c2)c2c(N)ncnc21` here?
Its EC50 is over 10 µM.

Which EC50 [1] does the source give for `CC(C)n1cc(-c2ccc3oc(N)nc3c2)c2c(N)ncnc21` here?
The EC50 was under 0.1 µM.

With `Nc1nc2cc(-c3nn(C4CCC(N5CCOCC5)CC4)c4ncnc(N)c34)ccc2o1` (configuration not stated) as the compound, how does the EC50 [1] read?
Its EC50 is under 1 µM.

For `CC(=O)O[C@H]1C(=O)[C@@]2(C)[C@H]([C@H](OC(=O)c3ccccc3)[C@]3(O)C[C@H](OC(=O)[C@H](O)[C@@H](NC(=O)c4ccccc4)c4ccccc4)C(C)=C1C3(C)C)[C@]1(OC(C)=O)CO[C@@H]1C[C@@H]2O` [PACLITAXEL], which IC50 [8] is on record?
The IC50 was “Active”.

For `CC(=O)N1CCC(n2nc(-c3ccc4oc(N)nc4c3)c3c(N)ncnc32)CC1`, which EC50 [1] is on record?
The EC50 was under 10 µM.

With `Nc1nc2cc(-c3nn(C4CCOCC4)c4ncnc(N)c34)ccc2o1` as the compound, how does the EC50 [1] read?
The EC50 was under 0.1 µM.

What does the source list for `O=c1[nH]cc(F)c(=O)[nH]1` [FLUOROURACIL]?
IC50 [9]: Active; IC50 [10]: Active; IC50 [11]: Active; IC50 [12]: Active; IC50 [13]: Active

With `CC(C)n1nc(-c2ccc3oc(N)nc3c2)c2c(N)ncnc21` [SAPANISERTIB] as the compound, how does the inhibition (U-87MG ATCC [14]) read?
The inhibition was “Dose-dependent effect”.

And the “growth inhibition (GI)” value (U-87MG ATCC [15])?
Its value is “Active”.

What about the inhibition [16] of the same compound?
Its inhibition is “Active”.

And the Activity [17]?
Its Activity is “Non-Toxic”.

And the inhibition [18]?
Its inhibition is “Active”.

What about the inhibition [19] of the same compound?
Its inhibition is “Active”.

What about the inhibition [20] of the same compound?
Its inhibition is “Active”.

And the inhibition [21]?
The inhibition was “Active”.

For `CC(C)n1nc(-c2ccc3nc(N)oc3c2)c2c(N)ncnc21`, which EC50 [1] is on record?
The EC50 was under 10 µM.

With `Nc1nc2cc(-c3cn(C4CCOCC4)c4ncnc(N)c34)ccc2o1` as the compound, how does the EC50 [1] read?
The EC50 was under 0.1 µM.

For `CC(=O)Nc1noc2cc(-c3nn(C(C)C)c4ncnc(N)c34)ccc12`, which EC50 [1] is on record?
Its EC50 is over 10 µM.

What does the source list for `CCc1c2c(nc3ccc(OC(=O)N4CCC(N5CCCCC5)CC4)cc13)-c1cc3c(c(=O)n1C2)COC(=O)[C@]3(O)CC` [IRINOTECAN]?
IC50 ([1]; pc-3): Active; IC50 [22]: Active
